PMC11571207, “Stereorandomized Oncocins with Preserved Ribosome Binding and Antibacterial Activity” (Journal of Medicinal Chemistry, 2024)
Values after ≈ are worked out from the molar mass of the structure shown. Read-outs that look alike come from different tables or passages of the source. Non-standard residues stand in square brackets, D forms with d. Residues, ends and D or L forms follow the SMILES beside them. No end group written: not given here.

What was measured:
[1] = system: P. aeruginosa PA14 4.18 (pmrB); settings: for MIC P. aeruginosa PA14 4.18 (pmrB), 12.5% MHB / MIC P. aeruginosa PA14 4.18 (pmrB), full MHB: polymyxin B resistant strain, 16–20 h at 37 °C; for MIC P. aeruginosa PA14 4.18 (pmrB), 12.5% MHB: 12.5% MHB pH 7.4; for MIC P. aeruginosa PA14 4.18 (pmrB), full MHB: full MHB pH 7.4; for MIC P. aeruginosa PA14 4.18: supplement CSV
K. pneumoniae OXA-48 = experiment: microbe, parasite or virus in culture; settings: for MIC K. pneumoniae OXA-48, 12.5% MHB / MIC K. pneumoniae OXA-48, full MHB: carbapenem-resistant, 16–20 h at 37 °C; for MIC K. pneumoniae OXA-48, 12.5% MHB: 12.5% MHB pH 7.4; for MIC K. pneumoniae OXA-48, full MHB: full MHB pH 7.4; for MIC K. pneumoniae OXA-48: supplement CSV
How it was run: (§1)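 Minimal inhibitory concentrations come from broth microdilution in MH medium, with a top peptide concentration of 64 μg/mL halved serially.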

P. aeruginosa ZEM-1A = experiment: microbe, parasite or virus in culture; settings: for MIC P. aeruginosa ZEM-1A, 12.5% MHB / MIC P. aeruginosa ZEM-1A, full MHB: clinical isolate, 16–20 h at 37 °C, cells marked c: single measurement (in duplicates); for MIC P. aeruginosa ZEM-1A, 12.5% MHB: 12.5% MHB pH 7.4; for MIC P. aeruginosa ZEM-1A, full MHB: full MHB pH 7.4; for MIC P. aeruginosa ZEM-1A: supplement CSV
How it was run: as §1

E. cloacae = experiment: microbe, parasite or virus in culture; settings: for MIC E. cloacae, 12.5% MHB: 12.5% MHB pH 7.4; for MIC E. cloacae, 12.5% MHB / MIC E. cloacae, full MHB: 16–20 h at 37 °C; for MIC E. cloacae, full MHB: full MHB pH 7.4; for MIC E. cloacae: supplement CSV
How it was run: as §1

P. aeruginosa ZEM9A = experiment: microbe, parasite or virus in culture; settings: for MIC P. aeruginosa ZEM9A, 12.5% MHB / MIC P. aeruginosa ZEM9A, full MHB: clinical isolate, 16–20 h at 37 °C; for MIC P. aeruginosa ZEM9A, 12.5% MHB: 12.5% MHB pH 7.4; for MIC P. aeruginosa ZEM9A, full MHB: full MHB pH 7.4; for MIC P. aeruginosa ZEM9A: supplement CSV
How it was run: as §1

[2] = system: P. aeruginosa PA14 2P4 (pmrB); experiment: microbe, parasite or virus in culture; settings: for MIC P. aeruginosa PA14 2P4 (pmrB), 12.5% MHB: 12.5% MHB pH 7.4; for MIC P. aeruginosa PA14 2P4: supplement CSV
How it was run: as §1

P. aeruginosa PA14 = experiment: microbe, parasite or virus in culture; settings: for MIC P. aeruginosa PA14, 12.5% MHB: 12.5% MHB pH 7.4; for MIC P. aeruginosa PA14, 12.5% MHB / MIC P. aeruginosa PA14, full MHB: 16–20 h at 37 °C, two different duplicate MIC determinations; for MIC P. aeruginosa PA14, full MHB: full MHB pH 7.4; for MIC P. aeruginosa PA14: supplement CSV
How it was run: as §1

E. coli BW25113 WT = settings: Table S1, 16-20 h at 37 °C; for MIC E. coli BW25113 WT, 12.5% MH: 12.5% Müller-Hinton medium pH 7.4; for MIC E. coli BW25113 WT, Full MH: full Müller-Hinton medium pH 7.4
Method: (§2) Minimum inhibitory concentration assay
(§3) Antimicrobial activity was assayed against P. aeruginosa PAO1, K. pneumoniae NCTC418, E. coli W3110, A. baumannii ATCC 19606, methicillin-resistant S. aureus COL (MRSA), and for selected peptides on P. aeruginosa PA14 and the polymyxin-B-resistant derivative PA14 2P4, as well as the clinical isolates ZEM-1A and ZEM9A, K. pneumoniae OXA-48, S. aureus Newman, Enterobacter cloacae and Burkholderia cenocepacia. The minimal inhibitory concentration (MIC) was determined by using broth microdilution method. A colo ny of bacteria was picked and grown in Luria-Bertani (LB) medium overnight at 37°C. For E. coli BW25113 sbmA::kan the medium was supplemented with 25 mg/L of kanamycin. The next day, the culture was then regrown in LB medium to log phase (OD600 = 0.6 to 0.8), which lasted approximately 4 h, and diluted to an OD600 of 0.022 in the desired medium. Stock solutions of 1 mg/mL of the samples were prepared in sterilized milliQ water and diluted to the beginning concentration of 64 μg/mL in 300 μL Mueller Hinton (MH)-medium. The diluted samples were added to first well of 96-well microtiter plate (TPP, untreated, Faust Laborbedarf, AG, Schaffhausen) and diluted serially by ½. Finally, 4 μL of the bacterial suspension was inoculated into the sample solutions (150 μL/well) with a final inoculation of about 5∙10^5 CFU/mL. The plates were then incubated at 37°C for 15-18h. For each assay, sterility (broth only) and growth control (broth with bacterial inoculum, without antibiotics) were checked with two columns in the plate. The next day, 15 μL of 3-(4,5-dimethylthiazol-2-yl)-2,5-diphenyltetrazolium bromide (MTT) was added to each well of the plate, such a way that MIC was defined as the lowest concentration of the peptide that inhibited visible growth of the tested […]
(§4) Table S1. Activity of stereorandomized and diastereomeric oncocins against E. coli BW25113 WT and BW25113 sbmA::kan mutant in full and 12.5% MH, at pH 7.4. […]
(§5) a) Minimum inhibitory concentration (MIC, μg/mL) was determined on E. coli BW25113 WT and […]

[3] = system: E. coli BW25113 sbmA::kan; settings: Table S1, sbmA::kan mutant, 16-20 h at 37 °C; for MIC E. coli BW25113 SbmA-, 12.5% MH: 12.5% Müller-Hinton medium pH 7.4; for MIC E. coli BW25113 SbmA-, Full MH: full Müller-Hinton medium pH 7.4
Method: as §2, §3, §4, §5

[4] = polymyxin B resistant strain, 16–20 h at 37 °C

Compound | MIC P. aeruginosa PA14 4.18 (pmrB), 12.5% MHB [1] [µg/mL] | MIC P. aeruginosa PA14 4.18 (pmrB), full MHB [1] [µg/mL] | MIC P. aeruginosa PA14 4.18 ([1]; 12.5% MH pH 7.4) [µg/mL] | MIC P. aeruginosa PA14 4.18 ([1]; full MH pH 7.4) [µg/mL] | MIC K. pneumoniae OXA-48, 12.5% MHB (K. pneumoniae OXA-48) [µg/mL] | MIC K. pneumoniae OXA-48, full MHB (K. pneumoniae OXA-48) [µg/mL] | MIC K. pneumoniae OXA-48 (K. pneumoniae OXA-48; 12.5% MH pH 7.4) [µg/mL] | MIC K. pneumoniae OXA-48 (K. pneumoniae OXA-48; full MH pH 7.4) [µg/mL] | MIC P. aeruginosa ZEM-1A, 12.5% MHB (P. aeruginosa ZEM-1A) [µg/mL] | MIC P. aeruginosa ZEM-1A, full MHB (P. aeruginosa ZEM-1A) [µg/mL] | MIC P. aeruginosa ZEM-1A (P. aeruginosa ZEM-1A; 12.5% MH pH 7.4) [µg/mL] | MIC E. cloacae, 12.5% MHB (E. cloacae) [µg/mL] | MIC E. cloacae, full MHB (E. cloacae) [µg/mL] | MIC E. cloacae (E. cloacae; 12.5% MH pH 7.4) [µg/mL] | MIC E. cloacae (E. cloacae; full MH pH 7.4) [µg/mL] | MIC P. aeruginosa ZEM9A, 12.5% MHB (P. aeruginosa ZEM9A) [µg/mL] | MIC P. aeruginosa ZEM9A, full MHB (P. aeruginosa ZEM9A) [µg/mL] | MIC P. aeruginosa ZEM9A (P. aeruginosa ZEM9A; 12.5% MH pH 7.4) [µg/mL] | MIC P. aeruginosa ZEM9A (P. aeruginosa ZEM9A; full MH pH 7.4) [µg/mL] | MIC P. aeruginosa PA14 2P4 (pmrB), 12.5% MHB [2, 4] [µg/mL] | other results
CC[C@H](C)[C@H](NC(=O)[C@@H](CCCNC(=N)N)NC(=O)[C@H](CCCNC(=N)N)NC(=O)[C@@H]1CCCN1C(=O)[C@@H]1CCCN1C(=O)[C@H](CCCNC(=N)N)NC(=O)[C@@H]1CCCN1C(=O)[C@H](CCCNC(=N)N)NC(=O)[C@@H]1CCCN1C(=O)[C@H](CC(C)C)NC(=O)[C@H](Cc1ccc(O)cc1)NC(=O)[C@@H]1CCCN1C(=O)[C@@H]1CCCN1C(=O)[C@H](CCCCN)NC(=O)[C@H](CC(=O)O)NC(=O)[C@@H](N)C(C)C)C(=O)N[C@@H](Cc1ccc(O)cc1)C(=O)N[C@@H](CC(N)=O)C(=O)N[C@H](CCCNC(=N)N)C(N)=O [Onc112, reference compound] (H-VDKPPYLPRPRPPR[dR]IYN[dR]-NH2) | 16 (≈ 6.69 µM) | > 32 | 16 (≈ 6.69 µM) | >32 | 1 (≈ 0.418 µM) | 8 (≈ 3.35 µM) | 1 (≈ 0.418 µM) | 8 (≈ 3.35 µM) | 8 (≈ 3.35 µM) | 32 (≈ 13.4 µM) | 8 (≈ 3.35 µM) | 1 (≈ 0.418 µM) | 2 (≈ 0.837 µM) | 1 (≈ 0.418 µM) | 2 (≈ 0.837 µM) | 8 (≈ 3.35 µM) | > 64 | 8 (≈ 3.35 µM) | >64 | 4 to 8 | MIC P. aeruginosa ZEM-1A (P. aeruginosa ZEM-1A; full MH pH 7.4): 32 µg/mL (≈ 13.4 µM); MIC P. aeruginosa PA14 2P4 ([2]; 12.5% MH pH 7.4): 4 to 8 µg/mL; MIC P. aeruginosa PA14, 12.5% MHB (P. aeruginosa PA14): 16 µg/mL (≈ 6.69 µM); MIC P. aeruginosa PA14, full MHB (P. aeruginosa PA14): > 32 µg/mL; MIC P. aeruginosa PA14 (P. aeruginosa PA14; 12.5% MH pH 7.4): 16 µg/mL (≈ 6.69 µM); MIC P. aeruginosa PA14 (P. aeruginosa PA14; full MH pH 7.4): >32 µg/mL; MIC E. coli BW25113 WT, 12.5% MH (E. coli BW25113 WT): 4 µg/mL (≈ 1.67 µM); MIC E. coli BW25113 WT, Full MH (E. coli BW25113 WT): 16 µg/mL (≈ 6.69 µM); MIC E. coli BW25113 SbmA-, 12.5% MH [3]: 4 µg/mL (≈ 1.67 µM); MIC E. coli BW25113 SbmA-, Full MH [3]: > 64 µg/mL
VDKPPYLPRPRPPRRIYNR [sr9Cterm-Onc] (VDKPPYLPRPRPPRRIYNR-NH2; also: residues 11-19 stereorandomized (1:1 L/D mixture)) | 8 | 64 | 8 | 64 | 4 | 32 | 4 | 32 | 4 to 8 | 64 | 4 to 8 | 1 | 32 | 1 | 32 | 8 | > 64 | 8 | >64 | 4 | MIC P. aeruginosa PA14 2P4 (pmrB), full MHB ([2]; polymyxin B resistant strain, full MHB pH 7.4, 16–20 h at 37 °C): > 64 µg/mL; MIC P. aeruginosa PA14 2P4 ([2]; 12.5% MH pH 7.4): 4 µg/mL; MIC P. aeruginosa PA14 2P4 ([2]; full MH pH 7.4): >64 µg/mL; MIC P. aeruginosa PA14, 12.5% MHB (P. aeruginosa PA14): 8 µg/mL; MIC P. aeruginosa PA14, full MHB (P. aeruginosa PA14): > 64 µg/mL; MIC P. aeruginosa PA14 (P. aeruginosa PA14; 12.5% MH pH 7.4): 8 µg/mL; MIC P. aeruginosa PA14 (P. aeruginosa PA14; full MH pH 7.4): >64 µg/mL; MIC E. coli BW25113 WT, 12.5% MH (E. coli BW25113 WT): 4 µg/mL; MIC E. coli BW25113 WT, Full MH (E. coli BW25113 WT): 32 µg/mL; MIC E. coli BW25113 SbmA-, 12.5% MH [3]: 8 µg/mL; MIC E. coli BW25113 SbmA-, Full MH [3]: > 64 µg/mL
